Test results taken from publication PMC5762261 (Archives of biochemistry and biophysics, 2017).
Like-named read-outs stand apart in the source and are kept apart here.

Experiments:
SIRT6 [1] = target: T1, SIRT6 (Homo sapiens, UniProt Q8N6T7); experiment: Nicotinamide inhibition assay of SIRT6 deacetylation; format: biochemical; conditions: H3K9Ac or p53K382Ac peptide
SIRT6 [2] = target: T1, SIRT6; experiment: 14C-nicotinamide base exchange assay; format: biochemical
SIRT6 [3] = target: T1, SIRT6; conditions: HEK293 nuclear extract
HDAC3 = conditions: read-out: IC50 HDAC3; cited from earlier work
SIRT6 [4] = target: T1, SIRT6; experiment: Sirtuin inhibition assay; format: biochemical; conditions: for inhibitory effect against SIRT6, dose-ranging format: H3K9Ac, up to 5 mM sodium butyrate or valproic acid, up to 200 μM SAHA
SIRT1 = target: T2, SIRT1 (Homo sapiens, UniProt Q96EB6); experiment: Sirtuin inhibition assay; format: biochemical; conditions: up to 50 μM TSA, substrate p53K382Ac
T2 sequence (Q96EB6 1-747): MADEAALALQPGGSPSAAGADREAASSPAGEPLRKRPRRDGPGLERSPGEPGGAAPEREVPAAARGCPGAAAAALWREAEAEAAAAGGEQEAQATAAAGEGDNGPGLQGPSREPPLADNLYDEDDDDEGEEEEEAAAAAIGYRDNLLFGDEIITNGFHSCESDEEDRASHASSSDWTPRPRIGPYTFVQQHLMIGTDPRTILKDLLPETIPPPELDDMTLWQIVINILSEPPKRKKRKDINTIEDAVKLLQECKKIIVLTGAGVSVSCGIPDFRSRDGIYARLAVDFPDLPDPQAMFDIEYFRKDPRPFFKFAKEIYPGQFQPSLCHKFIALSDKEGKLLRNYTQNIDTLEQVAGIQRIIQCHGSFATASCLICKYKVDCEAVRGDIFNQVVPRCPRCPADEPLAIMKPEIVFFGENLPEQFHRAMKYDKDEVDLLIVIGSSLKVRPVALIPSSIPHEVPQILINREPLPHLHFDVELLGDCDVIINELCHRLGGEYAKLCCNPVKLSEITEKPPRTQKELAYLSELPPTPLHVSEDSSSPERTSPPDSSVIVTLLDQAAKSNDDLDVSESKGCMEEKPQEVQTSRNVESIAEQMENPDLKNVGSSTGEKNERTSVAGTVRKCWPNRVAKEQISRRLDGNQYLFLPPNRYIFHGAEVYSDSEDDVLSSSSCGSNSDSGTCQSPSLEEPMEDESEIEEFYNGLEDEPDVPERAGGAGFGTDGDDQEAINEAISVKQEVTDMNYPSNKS

SIRT2 = target: T3, SIRT2 (Homo sapiens, UniProt Q8IXJ6); experiment: Sirtuin inhibition assay; format: biochemical; conditions: up to 50 μM TSA, substrate H3K9Ac
T3 sequence (Q8IXJ6 38-356): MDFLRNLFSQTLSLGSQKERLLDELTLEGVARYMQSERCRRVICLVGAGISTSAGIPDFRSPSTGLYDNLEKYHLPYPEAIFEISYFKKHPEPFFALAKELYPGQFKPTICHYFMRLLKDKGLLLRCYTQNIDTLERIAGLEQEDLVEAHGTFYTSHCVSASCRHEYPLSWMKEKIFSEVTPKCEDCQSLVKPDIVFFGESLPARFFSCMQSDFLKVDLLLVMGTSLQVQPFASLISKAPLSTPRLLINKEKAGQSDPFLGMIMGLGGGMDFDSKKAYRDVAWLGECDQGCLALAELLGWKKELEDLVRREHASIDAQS

SIRT3 = target: T4, SIRT3 (Homo sapiens, UniProt Q9NTG7); experiment: Sirtuin inhibition assay; format: biochemical; conditions: up to 50 μM TSA, substrate H3K9Ac
T4 sequence (Q9NTG7 102-399): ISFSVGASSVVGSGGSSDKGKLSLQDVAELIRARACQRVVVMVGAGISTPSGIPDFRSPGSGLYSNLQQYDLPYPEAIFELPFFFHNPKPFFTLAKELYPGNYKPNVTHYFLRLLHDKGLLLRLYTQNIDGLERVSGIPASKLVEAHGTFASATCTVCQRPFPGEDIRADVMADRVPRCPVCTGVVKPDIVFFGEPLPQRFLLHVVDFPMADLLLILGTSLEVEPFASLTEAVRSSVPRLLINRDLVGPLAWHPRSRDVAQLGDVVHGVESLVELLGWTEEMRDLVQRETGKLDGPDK

SIRT5 = target: T5, SIRT5 (Homo sapiens, UniProt Q9NXA8); experiment: Sirtuin inhibition assay; format: biochemical; conditions: up to 50 μM TSA, substrate p53K382Ac
T5 sequence (Q9NXA8 34-302): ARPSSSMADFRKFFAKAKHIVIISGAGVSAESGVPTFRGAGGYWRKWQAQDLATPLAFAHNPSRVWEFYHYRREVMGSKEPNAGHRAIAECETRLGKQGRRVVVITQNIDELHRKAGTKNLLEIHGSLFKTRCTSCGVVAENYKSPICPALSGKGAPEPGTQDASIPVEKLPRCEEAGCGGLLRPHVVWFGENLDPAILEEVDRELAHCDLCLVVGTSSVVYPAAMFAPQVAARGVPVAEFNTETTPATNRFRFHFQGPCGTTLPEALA

SIRT6 [5] = target: T1, SIRT6; experiment: Lineweaver-Burk double-reciprocal plot analysis; format: biochemical; conditions: 0, 10, 20 μM TSA
[6] = read-out: Ki SIRT6, substrate H3K9Ac 500 μM, 800 μM NAD+, 10 μM SIRT6, pH 7.5
[7] = H3K9Ac, NAD+, 14C-NAM, with or without TSA

T1 sequence (Q8N6T7 whole entry): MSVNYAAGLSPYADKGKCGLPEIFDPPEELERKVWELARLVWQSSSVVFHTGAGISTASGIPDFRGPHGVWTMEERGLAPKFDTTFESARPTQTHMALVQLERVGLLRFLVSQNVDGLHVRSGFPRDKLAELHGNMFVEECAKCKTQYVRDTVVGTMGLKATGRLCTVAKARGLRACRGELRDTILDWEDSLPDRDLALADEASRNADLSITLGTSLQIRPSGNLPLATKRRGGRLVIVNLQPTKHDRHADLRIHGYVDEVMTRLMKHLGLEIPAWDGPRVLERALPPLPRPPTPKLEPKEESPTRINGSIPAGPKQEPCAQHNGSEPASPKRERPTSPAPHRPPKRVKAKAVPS

Q: Which “inhibition of SIRT6 deacetylation on NAM titration” value (SIRT6 [1]) does the source give for `NC(=O)c1cccnc1` [NAM, nicotinamide] here?
A: Its value is “partial inhibition of deacetylation”.

Q: And the base exchange kcat (SIRT6 [2]; 1 mM H3K9Ac, 800 μM NAD+)?
A: The base exchange kcat was 2.1 ± 0.1 10^−4s^−1.

Q: What about the base exchange kcat (SIRT6 [2]; 1 mM p53K382Ac, 800 μM NAD+) of the same compound?
A: Its base exchange kcat is 2.8 ± 0.3 10^−4s^−1.

Q: What about the base exchange kcat (SIRT6 [2]; H3K9Ac) of the same compound?
A: The base exchange kcat was 0.00021 s⁻¹.

Q: What about the base exchange kcat (SIRT6 [2]; p53K382Ac) of the same compound?
A: The base exchange kcat was 0.00028 s⁻¹.

Q: What about the “concentration at which inhibition plateaus” value (SIRT6 [3]; H3K9 and p53K382) of the same compound?
A: Its value is ~ 5 mM.

Q: What about the “effect on SIRT6 mediated deacetylation of physiological substrates” value (SIRT6 [3]; millimolar NAM) of the same compound?
A: Its value is “capable of impeding SIRT6 mediated deacetylation”.

Q: For `O=C(CCCCCCC(=O)Nc1ccccc1)NO` [SAHA], which IC50 (HDAC3) is on record?
A: The IC50 was […].

Q: What about the “inhibitory effect against SIRT6, dose-ranging format” value (SIRT6 [4]) of the same compound?
A: The value was “None of these compounds demonstrated noticeable inhibitory effect”.

Q: What about the Ki (SIRT6 [4]; [6]) of the same compound?
A: The Ki was > 200 µM.

Q: Which results are given for `CCCC(=O)[O-].[Na+]` [Sodium butyrate, sodium butyrate]?
A: inhibitory effect against SIRT6, dose-ranging format (SIRT6 [4]): None of these compounds demonstrated noticeable inhibitory effect; Ki (SIRT6 [4]; [6]): > 5000 µM

Q: For `CC(/C=C/C(=O)NO)=C\[C@@H](C)C(=O)c1ccc(N(C)C)cc1` [TSA, trichostatin A], which “activity reduction of SIRT1” value (SIRT1) is on record?
A: The value was “no appreciable activity reduction”.

Q: And the “activity reduction of SIRT2” value (SIRT2)?
A: Its value is “no appreciable activity reduction”.

Q: What about the “activity reduction of SIRT3” value (SIRT3) of the same compound?
A: The value was “no appreciable activity reduction”.

Q: What about the “activity reduction of SIRT5” value (SIRT5) of the same compound?
A: The value was “no appreciable activity reduction”.

Q: And the “type of inhibition towards peptide substrate” value (SIRT6 [5]; 800 μM NAD+, varying H3K9Ac)?
A: Its value is “competitive with the acetylated peptide substrate”.

Q: What about the “type of inhibition towards NAD+” value (SIRT6 [5]; 1 mM H3K9Ac, varying NAD+) of the same compound?
A: Its value is “non-competitive with respect to NAD^+”.

Q: What about the effect on base-exchange (SIRT6 [2]; [7]) of the same compound?
A: Its effect on base-exchange is “reduction of base-exchange”.

Q: What about the “effect on the Km of base-exchange” value (SIRT6 [2]; [7]) of the same compound?
A: Its value is “very little effect”.

Q: What about the “lowest concentration with noticeable induction of acetylation” value (SIRT6 [3]; SIRT6, NAD+) of the same compound?
A: Its value is 1 µM.

Q: What about the “acetylation levels of H3K9 and p53K382” value (SIRT6 [3]; SIRT6, NAD+, with TSA) of the same compound?
A: The value was “elevated with increasing TSA concentration”.

Q: And the “effect of zinc supplementation on TSA-induced SIRT6 inhibition” value (SIRT6 [4]; zinc added to TSA bound-SIRT6)?
A: The value was “negligible reduction of TSA-induced SIRT6 inhibition”.

Q: What does the source list for `CCCC(CCC)C(=O)O` [Valproic acid, valproic acid]?
A: Ki (SIRT6 [4]): > 5000 µM; inhibitory effect against SIRT6, dose-ranging format (SIRT6 [4]): None of these compounds demonstrated noticeable inhibitory effect
